According to PubChem BioAssay (NCI):
Values joined by “and” are separate entries in the source; they are usually repeats but may differ in a detail not shown here. Equal values may be shown once.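 1) Cells in 96-well plates. 2) Compound, 48 h, 5 concentrations. 3) Linear interpolation between surrounding doses. 4) Unreached endpoint = highest concentration. GI50 = concentration required for 50% inhibition of growth. TGI: total growth inhibition.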 *1 amine or outer side, *2 acyl side, *3 side chain or, on linkers, in order; H or OH if unused. Where a SMILES comes first, the peptide text is derived from it. Bridges are numbered along the chain shown (N, C = ends). Roman numbers before positions name the chains, in order. [ ]: non-standard residue; d: D form. Actinocin(9to1) = Cc1c2oc3c(C)ccc(C(=O)[*:1])c3nc-2c(C(=O)[*:2])c(N)c1=O; NMeV = CN[CH](C(=O)O)C(C)C; Sar = CNCC(=O)O

How the values were obtained:
Experiment in all cases: growth of human tumour cells (NCI), 48 h
[1] = test system: SN12C renal
[2] = test system: SK-OV-3 ovarian
[3] = test system: HOP-92 NSCLC
[4] = test system: HT29 colon
[5] = test system: MDA-MB-435
[6] = test system: OVCAR-5 ovarian
[7] = test system: OVCAR-4 ovarian
[8] = test system: U251 CNS
[9] = test system: CCRF-CEM leukemia
[10] = test system: UO-31 renal

| Structure (SMILES) | GI50 [1] | TGI [1] | GI50 [2] [µM] | TGI [2] | GI50 [3] [µM] | TGI [3] | GI50 [4] | TGI [4] | GI50 [5] [µM] | TGI [5] [µM] | GI50 [6] | TGI [6] | GI50 [7] | TGI [7] | GI50 [8] | TGI [8] | TGI [9] [µM] | TGI [10] | GI50 [9] [µM] | GI50 [10] [µM] |
| --- | --- | --- | --- | --- | --- | --- | --- | --- | --- | --- | --- | --- | --- | --- | --- | --- | --- | --- | --- | --- |
| C#CC(F)(F)[C@]1(O)CC[C@H]2[C@@H]3CCC4=CC(=O)CCC4=C3[C@@H](c3ccc(C(C)=O)cc3)C[C@@]21C | 25.1 µM | > 95.3 µM | 20.7 | > 100 µM | 0.0456 | 0.356 µM | 0.109 µM | > 50.5 µM | 13.9 | 52 | 28.3 µM | > 100 µM | 18.9 µM | 97.1 µM | 17.7 µM | > 92.9 µM |  |  |  |  |
| c1ccc2c(c1)CCc1cc3cc4c(nc3nc1-2)-c1ccccc1CC4 |  | > 100 µM |  | > 100 µM |  |  |  |  |  |  |  |  |  |  |  | > 100 µM | > 100 | > 100 µM |  |  |
| O=C(NC1CCN(Cc2ccccc2)CC1)c1cc2nc(-c3ccc(Cl)s3)cc(C(F)(F)F)n2n1 | > 100 µM | > 100 µM | 61.6 | > 100 µM | 15.4 | > 100 µM | 3.14 µM | > 100 µM | > 100 | > 100 |  |  | 12.7 µM | 49.3 µM | 5.98 µM | > 100 µM | > 100 | > 100 µM | > 100 | > 100 |
| CC(C)c1ccc(/C=C2\CSCC3=C2NC(=S)NC3c2ccc(C(C)C)cc2)cc1 (centres undefined) |  | > 100 µM |  | > 100 µM |  | > 100 µM |  | > 100 µM |  |  |  | > 100 µM |  | > 100 µM |  | > 100 µM | > 100 | > 100 µM |  |  |
| Cc1c2oc3c(C)ccc(C(=O)NC4C(=O)NC(C(C)O)C(=O)N5CCCC5C(=O)N(C)CC(=O)N(C)C(C(C)C)C(=O)OC4C)c3nc-2c(C(=O)NC2C(=O)NC(C(C)O)C(=O)N3CCCC3C(=O)N(C)CC(=O)N(C)C(C(C)C)C(=O)OC2C)c(N)c1=O (centres undefined) (I: TTP[Sar][NMeV] / II: TTP[Sar][NMeV]; ester I:1-I:C, II:1-II:C; linker I:N-II:N via Actinocin(9to1); configuration not given here) |  | > 100 µM |  | > 100 µM |  |  |  | 4.19 µM |  | 3.81 |  | 44.2 µM |  | > 63.3 µM |  | > 100 µM | 5 | 19.6 µM |  |  |
| CCCCOP1(=O)C=C(C)C(=C(Cl)Cl)C(C)=C1 (centres undefined) |  | 34.8 µM |  | 49.8 µM |  | 4.88 µM |  | 29.9 µM |  |  |  | > 100 µM |  | > 91.1 µM |  | 22.4 µM | > 41.4 | 45.3 µM |  |  |
| O=c1cc(N2CCCC2)[nH]c(=O)n1-c1cccc(C(F)(F)F)c1 |  | > 100 µM |  | > 100 µM |  | > 100 µM |  | > 100 µM |  | > 100 |  | > 100 µM |  | > 100 µM |  | > 100 µM | > 100 |  |  |  |
| CSC1=C(C#N)C(=O)N(c2ccc(C)cc2)C(=S)C1C#N (centres undefined) |  | > 100 µM |  | > 100 µM |  | > 100 µM |  | > 100 µM |  | > 100 |  | > 100 µM |  | > 100 µM |  | > 100 µM | > 100 |  |  |  |
| Oc1ccc(SCc2cc(O)c(O)c(O)c2)cc1 |  | 74.9 µM |  | > 100 µM |  | > 100 µM |  | 48.1 µM |  | > 100 |  | 50.7 µM |  |  |  | > 100 µM | 74.4 | > 100 µM |  |  |
| CC(=O)OC(OC(C)=O)n1cc(C=O)c2ccccc21 |  | > 100 µM |  | > 100 µM |  |  |  | > 100 µM |  |  |  | > 100 µM |  | > 100 µM |  | > 100 µM | > 100 | > 100 µM |  |  |
| COC(=O)n1c(=O)n(-c2ccccc2)c(=O)n1C(=O)OC |  | > 100 µM |  | > 100 µM |  |  |  | > 100 µM |  | > 100 |  | > 100 µM |  | > 100 µM |  | > 100 µM | > 100 | > 100 µM |  |  |
| NCCNc1cccc2ccccc12 |  | > 100 µM |  | > 100 µM |  | > 100 µM |  | > 100 µM |  |  |  | > 100 µM |  | > 100 µM |  | > 100 µM |  | > 100 µM |  |  |
| CSc1c(C#N)c(=O)[nH]c2n[nH]c(C)c12 |  | > 100 µM |  | > 100 µM |  |  |  | > 100 µM |  | > 100 |  | > 100 µM |  | > 100 µM |  | > 100 µM | > 100 | > 100 µM |  |  |
| c1ccc2c(c1)nc(NC1CCCC1)c1[nH]c(C3CCCC3)nc12 |  | > 83.9 µM |  | > 62.5 µM |  | 37.2 µM |  | 20.1 µM |  |  |  | 61.1 µM |  | 30.1 µM |  | 13.3 µM | 64.3 | 63 µM |  |  |
| O=C1C=C(Br)c2c(Br)sc(Br)c21 |  | 38.3 µM |  | 64.3 µM |  | 7.64 µM |  | 44.5 µM |  | 42.9 |  | 41.3 µM |  | 34.4 µM |  | 41.3 µM |  | 10.3 µM |  |  |
| COC(=O)/C=C/c1cc(O)c2c(c1)[C@H](C(=O)OC)[C@@H](c1ccc(O)c(O)c1)O2 |  | > 74.1 µM |  | > 79.8 µM |  | > 94 µM |  | > 37.9 µM |  |  |  | > 100 µM |  | > 100 µM |  | > 100 µM | 5.18 | > 63.5 µM |  |  |
| C=CCNC(=O)NC1=CSC2=NC(=O)C3(NN12)c1ccccc1-c1ccccc13 |  | > 10 µM |  | > 10 µM |  | > 10 µM |  | > 10 µM |  | > 10 |  | > 10 µM |  | > 10 µM |  |  | > 10 | > 10 µM |  |  |
| NC(=O)C#CC(N)=O | 14.3 µM and 36.4 µM | 26.6 µM and > 100 µM |  | 231 µM and 214 µM and > 100 µM |  | 5.51 µM and 35.7 µM | 31.2 µM and 17 µM | 131 µM and 35.4 µM and > 100 µM |  |  | 20.9 µM and > 54 µM | 38.4 µM and 47.9 µM and > 90.8 µM | 30.7 µM and 21.6 µM and > 100 µM | 87.5 µM and 55 µM and > 100 µM | 43 µM and 39.1 µM and > 100 µM | 152 µM and 132 µM and > 100 µM |  | 63.4 µM and > 81.1 µM |  |  |
| CC(CO)C1C[C@H](O)[C@@]2(C)CC(=O)C=C(CO)[C@@H]2C1 (some centres undefined) |  | > 100 µM |  | > 100 µM |  | > 100 µM |  | > 100 µM |  | > 100 |  | > 100 µM |  | > 100 µM |  | > 100 µM |  | > 100 µM |  |  |
| Cc1cccc(NC(=O)C(=O)C(C(=O)c2ccccc2F)C2OC(=O)c3ccccc32)c1Cl (centres undefined) |  | > 100 µM |  | > 100 µM |  | > 100 µM |  | > 100 µM |  |  |  | > 100 µM |  | > 100 µM |  | 36 µM | 83 | > 100 µM |  |  |
